*1 amine or outer side, *2 acyl side, *3 side chain or, on linkers, in order; H or OH if unused. Where a SMILES comes first, the peptide text is derived from it. [ ]: non-standard residue; d: D form. X1 = O=C1c2ccccc2[C@@](O)(CN(Cc2ccccc2)[*:1])N1CC(=O)[*:2]; NMeL = CN[C@@H](CC(C)C)C(=O)O
Columns and labels:
[1] = tested on: HepG-2 cells; assay: cells; conditions: compound 8 vs compound 4
Text: (§1) The antitumor activity of the prepared cyclic peptides against human hepatocellular carcinoma cells (HepG-2), human cervical cancer cell lines (HeLa) and human breast cancer cells (MDA-MB-231) was examined by MMT assay, and the mouse fibroblast L929 cells were used as the model cells to evaluate the toxicity of cyclopeptides to normal cell lines. Due to the absence of an authentic standard, taxol was chosen as a control because it is a widely used chemotherapeutic drug for the treatment of various cancers, including liver cancer.
(§2) Samples were dissolved in DMSO and diluted into different concentrations ([…], 18.75, 25, 37.5, 50, 75, 100 and 250 μM) and stored at 4 °C. Cells in the logarithmic growth phase were digested with trypsin and then seeded in 96-well plates at a density of 2 × 10^4 cells/well in 100 μL of culture medium. The cells were treated with different concentrations of the tested compound, and a blank control group without the drug was also set up. Six wells were repeated for each dose. After 48 h of co-incubation, MTT solution (100 μL, 0.5 mg/mL) was added, followed by incubation for another 4 h. After discarding the supernatant, 100 μL of DMSO was added per well, and the absorbance (OD) values were measured at 490 nm using an enzyme marker. Cell viability was calculated by the formula: Cell viability (%) = As/Ab × 100% (where As is the absorbance value of the experimental group and Ab is the absorbance value of the blank group). The obtained data were processed using SPSS19 software to obtain IC50 values.

[2] = tested on: L929 cells; assay: cells; conditions: 48 h
Text: as §1, §2

[3] = tested on: MDM2; assay: Western blot of MDM2 level; format: cell-based, human; conditions: HepG-2 cells, 48 h, increasing drug concentration
Text: The p53 tumor suppressor plays a key role in preventing tumor development. In cancers retaining wild-type p53, the function of p53 can be suppressed by a variety of factors, and the murine double minute 2 (MDM2) protein is an important endogenous cellular inhibitor of p53 [29]. Therefore, inhibiting or blocking MDM2 protein should be an efficient strategy for the development of an antitumor agent. Actually, various MDM2 inhibitors have been studied and screened in recent years, including small molecules and polypeptides. […] Considering that the isoindolinone fragment is always present in the structure of MDM2 inhibitors and plays an important role in binding to the target protein, we tried to detect the MDM2 and p53 protein levels by Western blotting to assess the inhibiting ability of cyclic peptides containing isoindolinone fragments to MDM2 oncoprotein.
(§3) HepG-2 cells (5 × 10^6 cells) in the medium were treated with different concentrations of compounds for the required time and were washed twice with ice-cold PBS. The cells were scraped into cell lysate buffer containing phenylmethanesulfonyl fluoride (PMSF) and transferred to a 1.5 mL centrifuge tube, then lysed for 20 min at 4 °C. After centrifuging (12,000 r/min) for 20 min, the supernatant was collected and measured using the BCA Protein Assay Kit (Beyotime Biotechnology Co. Ltd., Shanghai, China)). […]

[4] = tested on: HepG-2 cells; assay: Cell cycle analysis by PI flow cytometry; format: cell-based, human
Experimental: The four phases in the cell cycle, mitosis (M), gap 1 (G1), synthesis of DNA (S), and gap 2 (G2), can be analysized by a commonly used dye, propidium iodide (PI), which could intercalate into the major groove of double-stranded DNA and produce a highly fluorescent adduct that can be detected due to its broad emission around 600 nm. In this research, the drug-treated tumor cells were fixed overnight at 4 °C with 70% ice-cold ethanol and then treated with Rnase A/PI for 60 min at 37 °C and analyzed by flow cytometry.
HepG-2 cells were inoculated in 6-well plates and incubated for 24 h. Then, different concentrations of compound 8 were added to the wells and incubated for the required time. The collected cells in the experimental and control groups were digested with trypsin, centrifuged (1000 r/min, 5 min), resuspended in PBS and fixed by 70% ice ethanol (3 mL) at −20 °C for 24 h. Then, cells were washed twice with PBS and resuspended in PBS (0.9 mL), then treated with 100 µL RNase (100 µg/mL) for 30 min at 37 °C. After centrifuging the mixture for 5 min, the cells were resuspended in 50 µg/mL PBS and stained with 600 µL of PI solution (Beyotime Biotechnology, Shanghai, China) for 60 min at 4 °C to stain. Finally, the physical properties of individual cells at different mitotic stages were analyzed by flow cytometry (BD Accuri C6, BD Biosciences, Franklin Lakes, NJ, USA).

[5] = tested on: cytochrome C; assay: Western blot of cytochrome C in the cytosol; format: cell-based, human; conditions: HepG-2 cells, increasing peptide concentrations, vs control
Text: Moreover, as mentioned previously and in others’ reports, the apoptosis of HepG-2 induced by galaxamide might be related to a mitochondria-mediated pathway. It has been known that with the decrease in the mitochondrial membrane potential, the cytochrome C in mitochondrion is released to the cytosol and can be detected. Therefore, we have also checked the content of cytochrome C in the cytosol by Western blotting to further verify the mitochondrial apoptotic pathway.
as §3, with “China)). Protein samples were then electrophoresed on 12% SDS-polyacrylamide gels and transferred to polyvinylidene difluoride (PVDF) membranes. The membranes were then closed with 5% skim milk in Tris-buffered saline Tween 20 (TBST) (containing 50 mM Tris-HCl, 150 mM NaCl and 0.02% Tween-20) for 2 h.” for “China)).”

CC(C)C[C@@H]1NC(=O)CN2C(=O)c3ccccc3[C@@]2(O)CN(Cc2ccccc2)C(=O)[C@H](CC(C)C)NC(=O)[C@H](CC(C)C)N(C)C(=O)[C@H](CC(C)C)NC(=O)[C@H](CC(C)C)NC1=O [Compound 8, 3-Hydroxy-isoindolinone-cyclo-Gly-Leu-N-Me-Leu-Leu-Leu-Leu] (cyclo(LL[NMeL]L[X1]L))
antitumor activity relative to compound 4 [1]: eight times stronger
IC50 [2]: > 400 µM
level of MDM2 [3]: decreased gradually
4N (G2/M phase) cells ([4]; 5.5 μM, 48 h): 12.0%
4N (G2/M phase) cells ([4]; 11 μM, 12 h): 10.1%
4N (G2/M phase) cells ([4]; 11 μM, 24 h): 17.4%
4N (G2/M phase) cells ([4]; 11 μM, 48 h): 25.8%
4N (G2/M phase) cells ([4]; 22 μM, 48 h): 33.0%
level of cytochrome C in the cytosol [5]: increased significantly

— paper PMC9227305, “Photoinduced Synthesis of Methylated Marine Cyclopeptide Galaxamide Analogs with Isoindolinone as Anticancer Agents” (Marine Drugs, 2022)
